For one assay, the target named is T1, VCAM-1/α4β1 integrin binding (Homo sapiens, UniProt P05556+P13612).
T1 construct: Jurkat (ATCC TIB-152), known to express integrin α4β1; endogenous in cells; host or cells: Jurkat (ATCC TIB-152)
T1 sequence (P13612 34-1032): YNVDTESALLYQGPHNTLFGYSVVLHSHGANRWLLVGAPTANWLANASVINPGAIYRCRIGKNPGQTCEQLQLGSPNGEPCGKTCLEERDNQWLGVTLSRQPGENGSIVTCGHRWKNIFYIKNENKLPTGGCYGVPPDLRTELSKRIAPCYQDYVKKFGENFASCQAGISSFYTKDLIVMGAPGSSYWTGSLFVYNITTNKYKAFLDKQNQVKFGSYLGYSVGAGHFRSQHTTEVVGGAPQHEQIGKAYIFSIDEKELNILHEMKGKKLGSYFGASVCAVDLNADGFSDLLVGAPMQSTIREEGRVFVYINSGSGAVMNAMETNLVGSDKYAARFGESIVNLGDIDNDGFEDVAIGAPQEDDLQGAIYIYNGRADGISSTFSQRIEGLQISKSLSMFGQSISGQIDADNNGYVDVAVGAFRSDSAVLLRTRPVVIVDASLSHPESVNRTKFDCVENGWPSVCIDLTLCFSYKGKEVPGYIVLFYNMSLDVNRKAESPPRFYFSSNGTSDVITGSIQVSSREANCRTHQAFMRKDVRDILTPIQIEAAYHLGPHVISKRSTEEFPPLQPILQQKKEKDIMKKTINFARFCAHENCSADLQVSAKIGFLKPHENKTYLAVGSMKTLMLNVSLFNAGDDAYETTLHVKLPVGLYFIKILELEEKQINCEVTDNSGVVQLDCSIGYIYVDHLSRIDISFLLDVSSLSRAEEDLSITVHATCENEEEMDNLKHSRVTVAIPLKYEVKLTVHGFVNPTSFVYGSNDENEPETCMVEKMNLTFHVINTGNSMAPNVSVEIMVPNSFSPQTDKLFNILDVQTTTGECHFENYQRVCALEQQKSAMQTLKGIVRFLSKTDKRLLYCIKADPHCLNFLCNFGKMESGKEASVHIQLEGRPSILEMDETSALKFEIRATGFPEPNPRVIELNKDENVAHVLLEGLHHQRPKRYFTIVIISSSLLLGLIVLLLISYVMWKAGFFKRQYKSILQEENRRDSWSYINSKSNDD
T1 sequence (P05556 21-798): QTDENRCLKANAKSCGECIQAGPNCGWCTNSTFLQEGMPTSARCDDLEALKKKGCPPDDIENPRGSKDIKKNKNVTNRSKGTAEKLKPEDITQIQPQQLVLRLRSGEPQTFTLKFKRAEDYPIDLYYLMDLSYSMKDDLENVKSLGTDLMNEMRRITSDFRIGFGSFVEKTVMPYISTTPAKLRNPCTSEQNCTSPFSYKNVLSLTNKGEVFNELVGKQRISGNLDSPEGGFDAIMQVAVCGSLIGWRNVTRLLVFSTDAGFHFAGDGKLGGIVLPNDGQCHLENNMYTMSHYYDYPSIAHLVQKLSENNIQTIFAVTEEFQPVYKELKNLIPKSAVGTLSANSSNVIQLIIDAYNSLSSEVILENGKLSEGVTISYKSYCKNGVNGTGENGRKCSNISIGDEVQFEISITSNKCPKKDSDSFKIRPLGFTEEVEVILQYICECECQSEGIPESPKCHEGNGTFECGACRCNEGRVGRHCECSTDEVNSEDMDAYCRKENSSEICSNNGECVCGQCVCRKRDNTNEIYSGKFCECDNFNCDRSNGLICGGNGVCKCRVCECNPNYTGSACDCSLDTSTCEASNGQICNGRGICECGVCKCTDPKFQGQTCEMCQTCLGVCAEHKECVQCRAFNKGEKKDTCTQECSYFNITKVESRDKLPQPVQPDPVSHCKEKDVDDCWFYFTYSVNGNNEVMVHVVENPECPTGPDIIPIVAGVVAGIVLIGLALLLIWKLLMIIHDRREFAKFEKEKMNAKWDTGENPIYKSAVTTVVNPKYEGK
The assay can be described thus: Assay of antagonistic activity to VCAM-1/α4β1 integrin binding under the existence of blood serum (Jurkat cell adhesion to VCAM-1/Fc). It is filed as cell-based. The conditions noted are these: Jurkat cells, recombinant human VCAM-1/Fc, 50% human blood serum. Here is the method: Assay of Antagonistic Activity to VCAM-1/α4β1 Integrin Binding Under the Existence of Blood Serum
The capacity of a test substance antagonistic to the binding of cell strain of human T cells, Jurkat (ATCC TIB-152), known to express integrin α4β1, to VCAM-1 was determined.
Fifty μl/well of a solution (500 ng/ml) of recombinant human VCAM-1/Fc (R & D systems) diluted with buffer A (0.1 M NaHCO3, pH 9.6) was added to a 96-well microtiter plate (Nunc Maxisorp). After the incubation at 4° C. overnight and washing once with PBS, a buffer (buffer B) obtained by diluting Block Ace (Snow Brand Milk Products Co., Ltd.) with PBS to ½ concentration was added in an amount of 150 μl/well. After the incubation at room temperature for 2 hours, buffer B was removed and the plate was washed with PBS once.
Jurkat cells were washed with Dulbecco modified Eagle medium (SIGMA, hereinafter referred to as “DMEM”) once. Then, the cells were again suspended in a binding buffer (DMEM containing 20 mM HEPES, 0.1% BSA, 2 mM MnCl2 and 50% human blood serum (Sigma)) to become 1×10^6 cells/mL.
Sixty μl of a test substance of various concentrations obtained by the dilution with the binding buffer was added to a round-bottom, 96-well plate (IWAKI). Immediately thereafter, 60 μl of the Jurkat cells (1×10^6 cells/ml) were added thereto and shaken on a plate shaker (IKA-Labortechnik, IKA-SCHUTTLER MTS-4) at 1000 rpm for 10 seconds. In 120 μL of the cell suspension to which the test substance was added, each 100 μL thereof was transferred on the VCAM-1/Fc-coated plate and incubated in dark place at room temperature for 60 minutes. After the shaking on the plate shaker at 1000 rpm for 30 seconds, the solution was immediately removed. Then, the unbound cells were removed by washing them with PBS once. A buffer C (PBS containing 0.82% Triton X-100) was added to the plate in an amount of 70 μL/well. After the shaking on the plate shaker at 1000 rpm for 5 minutes, the bound Jurkat cells were lysed. After centrifuging the cells on a plate centrifuge (SIGMA 4-15C) at room temperature at 2500 rpm for 5 minutes, 50 μL of supernatant thereof was transferred to a 96-well microtiter plate (Nunc Maxisorp). Each 50 μL of Substrate Buffer (Promega, CytoTox 96 Non-Radioactive Cytotoxicity Assay) was added thereto, shaken on a plate shaker at 1000 rpm for 10 seconds and reacted in dark place at room temperature for 30 minutes. Then, each 50 μL of Stop Solution (Promega, CytoTox 96 Non-Radioactive Cytotoxicity Assay) was added thereto and shaken on a plate shaker at 1000 rpm for 10 seconds. […] The absorbance thus obtained detects an activity of lactate dehydrogenase (LDH) dissolved in the supernatant of each well. Namely, the absorbance is proportional to the number of remaining Jurkat cells on the plate via the binding to VCAM-1. The test was conducted in duplicate and the binding rate of each test substance in various concentrations was determined while the absorbance of the test substance-free well was determined to be 100% and the absorbance of the Jurkat-cell-free well was determined to be 0%. The concentration for the 50% inhibition of binding, IC50, was calculated.
In the case of `Cn1c(=O)n(-c2ccc(C[C@H](NC(=O)c3c(Cl)cccc3Cl)C(=O)O)cc2)c(=O)c2cc(CNC3CC3)ccc21` [Example 192], the IC50 (commonly the concentration that inhibits the measured activity by half) was 17.9 nM.
Still for that read-out and setting: next, `CC(C)NCc1ccc2c(c1)c(=O)n(-c1ccc(C[C@H](NC(=O)c3c(Cl)cccc3Cl)C(=O)O)cc1)c(=O)n2C` [Example 194]: 6.9 nM.
Still for that read-out and setting: the value for `CC(C)CCNCc1ccc2c(c1)c(=O)n(-c1ccc(C[C@H](NC(=O)c3c(Cl)cccc3Cl)C(=O)O)cc1)c(=O)n2C` [Example 196] was 5.3 nM.
Take `Cn1c(=O)n(-c2ccc(C[C@H](NC(=O)c3c(Cl)cccc3Cl)C(=O)O)cc2)c(=O)c2cc(CNCC3CC3)ccc21` [Example 197]: the IC50 amounted to 6.3 nM.
Same read-out and setting: the value for `CCC(C)NCc1ccc2c(c1)c(=O)n(-c1ccc(C[C@H](NC(=O)c3c(Cl)cccc3Cl)C(=O)O)cc1)c(=O)n2C` (stereo partly shown) [Example 198] was 5.7 nM.
Same read-out and setting: next, `CC(C)N(C)Cc1ccc2c(c1)c(=O)n(-c1ccc(C[C@H](NC(=O)c3c(Cl)cccc3Cl)C(=O)O)cc1)c(=O)n2C` [Example 199]: 18 nM; `CCNCCCc1ccc2c(c1)c(=O)n(-c1ccc(C[C@H](NC(=O)c3c(Cl)cccc3Cl)C(=O)O)cc1)c(=O)n2C` [Example 208]: 13.4 nM; `CCCNCCCc1ccc2c(c1)c(=O)n(-c1ccc(C[C@H](NC(=O)c3c(Cl)cccc3Cl)C(=O)O)cc1)c(=O)n2C` [Example 209]: 15.2 nM.
Same read-out and setting: the value for `CNCCCOc1ccc2c(c1)c(=O)n(-c1ccc(C[C@H](NC(=O)c3c(Cl)cccc3Cl)C(=O)O)cc1)c(=O)n2C` [Example 226] was 9.2 nM; that for `CNCCc1cc2c(=O)n(-c3ccc(C[C@H](NC(=O)c4c(Cl)cccc4Cl)C(=O)O)cc3)c(=O)n(C)c2cc1F` [Example 229, N-(2,6-dichlorobenzoyl)-4-{7-fluoro-1-methyl-6-[2-(methylamino)ethyl]-2,4-dioxo-1,2,3,4-tetrahydroquinazoline-3(2H)-yl}-L-phenylalanine] was 14.7 nM.
Take `CNCCc1ccc2c(c1)c(=O)n(-c1ccc(C[C@H](NC(=O)c3c(Cl)cccc3Cl)C(=O)O)cc1)c(=O)n2C` [Example 230, N-(2,6-dichlorobenzoyl)-4-{1-methyl-6-[2-(methylamino)ethyl]-2,4-dioxo-1,2,3,4-tetrahydroquinazoline-3(2H)-yl}-L-phenylalanine]: the IC50 came out at 11.7 nM.
On to “N-(2,6-dichlorobenzoyl)-4-[6-((2S)-2-aminopropoxy)-1-methyl-2,4-quinazoline-dione-3-yl]-L-phenylalanine isopropylester [Example 141]”, for which the IC50 amounted to 12.2 nM.

The test system of another assay is lymphocytes in the peripheral blood. The assay can be described thus: Activity to elevate the number of lymphocytes in the peripheral blood in a rat. It is filed as in vivo, male Wistar rat. The conditions noted are these: oral, 3 mg/kg, 1 hour later, criterion 195% or more of vehicle group. The procedure: Activity to Elevate the Number of Lymphocytes in the Peripheral Blood in a Rat
The activity of the compounds of the present invention to elevate the number of lymphocytes in the rat was examined.
A dosing solution was prepared by dissolving the compounds of the present invention to dimethylsulfoxide, adding the mixed solution of polyethylene glycol 400: propylene glycol=1:1 and turning it upside and down repeatedly. The final concentration of DMSO was adjusted to become 2.5%.
The dosing solution of a test substance (3 mg/kg, 10 mg/kg or 30 mg/kg) was orally administered to a male Wistar rat (6 to 8 weeks age) in an amount of 4 mL/kg. After the settled time points after the administration, the blood was drawn from its abdominal large vein under anesthesia and stirred in a EDTA-2K coated container for blood collection. Then, the number of lymphocytes in the peripheral blood was determined by an automated comprehensive hematology analyzer (SF-3000, Sysmex). The test was executed in n=5, and the ratio (%) of the number of lymphocytes in the peripheral blood in a test-substance-administered group to that in a vehicle-treated group (a control group) was calculated while the average value of the number of lymphocytes in the peripheral blood in a control group was determined to be 100%.
Consider `COC(=O)[C@H](Cc1ccc(-n2c(=O)c3cncnc3n(C)c2=O)cc1)NC(=O)c1c(Cl)cccc1Cl` [Example 129, N-(2,6-dichlorobenzoyl)-4-(1-methyl-2,4-dioxo-1,2,3,4-tetrahydropyrimido[4,5-d]pyrimidine-3(2H)-yl)-L-phenylalanine methylester], for which the “Elevation of lymphocytes in the peripheral blood, pass/failure” value (from here on “Elevation of lymphocytes … pass/failure”) is “◯ (pass (criterion measure or more))”.

Staying with this assay, now noted: oral, 10 mg/kg, 6 hours later, criterion 150% or more of vehicle group.
For the compound `CCNCc1ccc2c(=O)n(-c3ccc(C[C@H](NC(=O)c4c(Cl)cccc4Cl)C(=O)OC(C)C)cc3)c(=O)n(C)c2c1` [Example 156, N-(2,6-dichlorobenzoyl)-4-[7-ethylaminomethyl-1-methyl-2,4-quinazoline-dione-3-yl]-L-phenylalanine isopropylester], the “Elevation of lymphocytes … pass/failure” value is “◯ (pass (criterion measure or more))”.
Still for that read-out and setting: the value for `CNCc1ccc2c(=O)n(-c3ccc(C[C@H](NC(=O)c4c(Cl)cccc4Cl)C(=O)OC4CCCC4)cc3)c(=O)n(C)c2c1` [Example 157, N-(2,6-dichlorobenzoyl)-4-[7-methylaminomethyl-1-methyl-2,4-quinazoline-dione-3-yl]-L-phenylalanine cyclopentylester] was “◯ (pass (criterion measure or more))”.
For `CNCc1ccc2c(=O)n(-c3ccc(C[C@H](NC(=O)c4c(Cl)cccc4Cl)C(=O)OCC(C)C)cc3)c(=O)n(C)c2c1` [Example 158, N-(2,6-dichlorobenzoyl)-4-[7-methylaminomethyl-1-methyl-2,4-quinazoline-dione-3-yl]-L-phenylalanine isobutylester], the “Elevation of lymphocytes … pass/failure” value is reported as “◯ (pass (criterion measure or more))”.
As to `CCCNCc1ccc2c(=O)n(-c3ccc(C[C@H](NC(=O)c4c(Cl)cccc4Cl)C(=O)OC(C)C)cc3)c(=O)n(C)c2c1` [Example 159, N-(2,6-dichlorobenzoyl)-4-[1-methyl-7-propylaminomethyl-2,4-quinazoline-dione-3-yl]-L-phenylalanine isopropylester], the “Elevation of lymphocytes … pass/failure” value is on record as “◯ (pass (criterion measure or more))”.

The same assay, now with this note: oral, 30 mg/kg, 12 hours later, criterion 150% or more of vehicle group.
In the case of `CC(C)OC(=O)[C@H](Cc1ccc(-n2c(=O)c3cc(OCCN(C)C)ccc3n(C)c2=O)cc1)NC(=O)c1c(Cl)cccc1Cl` [Example 155, N-(2,6-dichlorobenzoyl)-4-[6-(2-dimethylaminoethoxy)-1-methyl-2,4-quinazoline-dione-3-yl]-L-phenylalanine isopropylester], the “Elevation of lymphocytes … pass/failure” value is given as “◯ (pass (criterion measure or more))”.
As to `CC(C)OC(=O)[C@H](Cc1ccc(-n2c(=O)c3cc(CN)ccc3n(C)c2=O)cc1)NC(=O)c1c(Cl)cccc1Cl` [Example 174, Isopropyl (2S)-3-[4-(6-(aminomethyl)-1-methyl-2,4-dioxo-1,2,3,4-tetrahydro-3(2H)-quinazolinyl)phenyl]-2-[(2,6-dichlorobenzoyl)amino]propanoate], the “Elevation of lymphocytes … pass/failure” value is on record as “◯ (pass (criterion measure or more))”.
With `CNCc1cc2c(=O)n(-c3ccc(C[C@H](NC(=O)c4c(Cl)cccc4Cl)C(=O)OC(C)C)cc3)c(=O)n(C)c2cc1F` [Example 184, Isopropyl (2S)-2-[(2,6-dichlorobenzoyl)amino]-3-[4-(7-fluoro-1-methyl-6-[(methylamino)methyl]-2,4-dioxo-1,2,3,4-tetrahydro-3(2H)-quinazolinyl)phenyl]propanoate], the “Elevation of lymphocytes … pass/failure” value is “◯ (pass (criterion measure or more))”.
The same measure, in the same setting: the value for `CNCc1ccc2c(c1)c(=O)n(-c1ccc(C[C@H](NC(=O)c3c(C)cccc3Cl)C(=O)OC(C)C)cc1)c(=O)n2C` [Example 187, Isopropyl (2S)-2-[(2-chloro-6-methylbenzoyl)amino]-3-[4-(1-methyl-6-[(methylamino)methyl]-2,4-dioxo-1,2,3,4-tetrahydro-3(2H)-quinazolinyl)phenyl]propanoate] was “◯ (pass (criterion measure or more))”; that for `CNCCc1cc2c(=O)n(-c3ccc(C[C@H](NC(=O)c4c(Cl)cccc4Cl)C(=O)OC(C)C)cc3)c(=O)n(C)c2cc1F` [Example 228, N-(2,6-dichlorobenzoyl)-4-{7-fluoro-1-methyl-6-[2-(methylamino)ethyl]-2,4-dioxo-1,2,3,4-tetrahydroquinazoline-3(2H)-yl}-L-phenylalanine isopropylester] was “◯ (pass (criterion measure or more))”.

The values above are taken from patent publication US7345049B2, “Phenylalanine derivatives” (Ajinomoto Co., Inc., priority 2003, dated 2008).
